Assay results reported in US7829662B2, “Method of treating apoptosis and compositions thereof” (Dana Farber Cancer Institute, Inc., priority 2001, dated 2010).
“Also recorded” adds a separate entry of the source.

Columns and labels:
mitochondria [1] = assay: Cytochrome c release from isolated liver mitochondria (immunoblot densitometry or ELISA); format: biochemical, Balb/cJ mice
Description: Mitochondria were isolated from liver of Balb/cJ mice by standard differential centrifugation, and resuspended in isolation buffer (IB) (0.2 M sucrose, 10 mM Tris-MOPS pH 7.4, 0.1 mM EGTA-Tris, 0.1% delipidated BSA).
At the indicated time, mitochondria were pelleted by centrifugation at 12000×g at 4° C. for 3 min, and resuspended in the same volume of EB. Cytochrome c release was determined either by densitometry (Stratagene Eagle Eye II, BioRad) of immunoblots, or by rat/mouse specific ELISA performed on mitochondrial pellet and supernatant diluted 1:20 in PBS containing 0.5% Triton X-100 (R&D systems, MN). Cytochrome c is reported as the percentage of the supernatant over the total (pellet plus supernatant).
For SDS-PAGE, 20 μg of mitochondrial protein was loaded in each lane of a 12% NuPAGE (NoVex, CA) gel. After separation, proteins were transferred onto PVDF membranes (Immobilon-P, Millipore, Calif.) and membranes were probed as indicated with the following primary antibodies: anti-cytochrome c (Pharmingen, CA, 1:1000); anti-BID (1:1500); anti-BAK (Calbiochem, CA, 1:1000). HRPO-conjugated secondary antibodies (CalTag, CA, 1:2000) were visualized by chemiluminescence (Amersham, N.J.).
(§1) Mitochondria were incubated with increasing amounts of digitonin to assess how much cytochrome c was released from IMS by the selective solubilization of the OM (Hoppel and Cooper, 107, 367-375, 1968). To monitor interaction of digitonin with the […], uncoupled respiration in the presence of excess exogenous cytochrome c was assessed. Specifically 0.5 mg/ml mitochondria was incubated in EB with the indicated concentration of digitonin. After 5 minutes, mitochondria were centrifuged and cytochrome c content in the resulting pellet and supernatant were determined as described. Uncoupled JO2, uncoupled respiratory rate was recorded in parallel experiments. After 5 minutes of incubation with the indicated concentration of digitonin, mitochondria were treated with 400 pmol CCCP×mg protein-1 in the presence of 10 nmol cytochrome c×mg protein.

mitochondria [2] = assay: Uncoupled respiration (JO2) of digitonin-treated mitochondria; format: biochemical, Balb/cJ mice; conditions: CCCP, exogenous cytochrome c
Description: as §1, with “protein. Approximately 16% of the total cytochrome c could be released by digitonin without substantial respiratory inhibition (no interference of digitonin with the IM) (Table 1), a percentage in agreement with the pool of cytochrome c estimated to reside in the IMS (Bernardi and Azzone, 1981). Therefore, tBID must deploy additional events to enable the release of nearly all cytochrome c from the mitochondrion.” for “protein.”

Bak −/− mitochondria = assay: Digitonin releasable cytochrome c pool; format: biochemical; conditions: digitonin concentration that does not interfere with IM function (80 pmol × mg protein^−1, 5 mins)
mitochondria [3] = assay: Mitochondrial swelling by side scatter at 545 nm; format: biochemical, Balb/cJ mice
Description: tBID was evaluated to determine if it causes any swelling or depolarization that might reflect an opening of the PTP. Swelling of 0.5 mg/ml mitochondria incubated in EB was monitored by changes in side scatter at 545±2.5 nm using LS-50B spectrofluorimeter equipped with magnetic stirring at 25° C. Membrane potential changes of 0.5 mg/ml mitochondria incubated in experimental buffer were monitored from the dequenching of a 0.3 μM Rhodamine 123 (Molecular Probes, OR) solution in a LS-50B spectrofluorimeter at 25° C., using excitation and emission wavelengths set at 503±2.5 nm and 525±5 nm, respectively.
To determine if the BID α6 14mer (SEQ ID NO:1) induced mitochondrial swelling or release of cytochrome c across the mitochondrial outer membrane, mitochondria at 1 mg/ml were incubated in experimental buffer and, where indicated, 20 μM Ca^2+ and 10 μM 14mer were added. Where noted, mitochondria were preincubated with CsA. […] Mitochondria were incubated with 10 μM 14mer in the presence or in the absence of 1 μM CsA. At the indicated time in minutes, mitochondria were pelleted by centrifugation and cytochrome c in the pellet and in the supernatant was determined.

[4] = system: calcein loaded mitochondria; assay: Release of matrix-entrapped calcein (transient PTP opening); format: biochemical, Balb/cJ mice; conditions: 10 μM BID α6 14mer
Description: To assess calcein release, mitochondria suspended in IB without BSA were loaded with 10 nmol×mg protein^−1 calcein-AM (Molecular Probes, Eugene, Oreg.) for 20 mins at room temperature in the dark. Following two washes in IB, the calcein loaded mitochondria were resuspended in IB at a final concentration of 10 mg/ml. 0.5 mg/ml calcein loaded mitochondria were incubated in EB and treated as described. After the indicated time, mitochondria were pelleted. Calcein was measured in an LS-50B spectrofluorimeter (Perkin Elmer) with excitation and emission wavelengths set at 488±2.5 nm and 542±2.5 nm, respectively.
After 30 min mitochondria were spun at 14000 g for 3 min at 4 C and the calcein content in the pellet and in the supernatant was determined. […] To determine if a BID α6 mutation variant, BID α6 mutein (SEQ ID NO:7), would inhibit cytochrome c release, His-tag p22 wt BID and the BID α6 mutein were expressed, purified on a Ni^2+ column, and cleaved with caspase 8.
Mitochondria were loaded with calcein and treated with 10 μM BID α6 14mer. Where noted, mitochondria were pretreated with 1 μM CsA. At the indicated time, mitochondria were pelleted by centrifugation and calcein in the pellet and in the supernatant was determined.

BAK = BAK oligomerization (BMH crosslinking, anti-BAK immunoblot); format: biochemical, Balb/cJ mice; conditions: 10 μM BID α6 14mer, 30 min
Description: In lanes 7-8 mitochondria were pretreated with 800 pmol CsA×mg protein^−1 for 3 mins. After the indicated time, DMSO (lanes 1-2) or 10 mM BMH (lanes 3-8) was added, and after another 30 min the crosslinking reaction was quenched (Wei et al., 2001). The mitochondria were subjected to SDS-PAGE and immunoblot with anti BAK antibody. Star, BAK multimers.
To also determine if the BID α6 14mer (SEQ ID NO:1) modulated BAK oligomerization, mitochondria were incubated for 30 min with 10 μM BID α6 14mer in the presence or in the absence of 1 μM CsA. Crosslinking with BMH, SDS-PAGE and anti BAK immunoblotting was carried out.

wt mitochondria [5] = assay: Cytochrome b5-dependent NADH oxidation assay; format: biochemical, Balb/cJ mice
Description: (d), mitochondria were preincubated for 2 min with 800 pmol CsA×mg protein^−1. (a), no additions. After 15 min, respiratory chain inhibitors were added and after another 2 minutes NADH fluorescence reading started. Arrow, 20 nmol NADH×mg protein^−1. In (e), 200 nmol mersalyl×mg protein was added 1 min before NADH.
In the cytochrome b5-dependent NADH oxidation assay, 1 mg/ml mitochondria were incubated in EB and treated as indicated. 400 pmol CCCP, 2 nmol rotenone and 1 nmol antimycin A×mg protein^−1 were added after the time indicated and the reaction transferred to a cuvette. After 2 min, 10 μM NADH was added and its oxidation monitored as the decrease in NADH fluorescence in a LS50B spectrofluorimeter (Perkin Elmer) set with λex=366 nm and λem=455 nm, with 5 nm slits.

wt mitochondria [6] = assay: Ascorbate/TMPD-driven respiration assay; format: biochemical, Balb/cJ mice; conditions: 200 nmol Ca^2+ × mg protein^−1
Description: Symbols used are detailed in the legend. […] (a), no additions. […] Arrow, 6 mM ascorbate-Tris and 300 μM TMPD were added. Assays were developed to assess the amount of cytochrome c freely available in the IMS (FIGS. 3A, B). […] After the indicated time, 400 pmol CCCP and 1 nmol antimycin A×mg protein^−1 were added, and the reaction transferred to a Clark type oxygen electrode chamber. Final volume was 1 ml, 25° C. After 2 min, 6 mM ascorbate was added, followed after a further 3 min by 300 μM TMPD. The ascorbate-driven O2 consumption rate over the total TMPD-driven rate is plotted as a percentage of the ratio in the untreated mitochondria.

In the case of `C[C@@H]1CC[C@@]2(OC1)O[C@H]1[C@@H](O)[C@H]3[C@@H]4CC[C@H]5C[C@@H](O[C@@H]6O[C@H](CO)[C@H](O[C@@H]7O[C@H](CO)[C@@H](O)[C@H](O[C@@H]8OC[C@@H](O)[C@H](O)[C@H]8O)[C@H]7O[C@@H]7O[C@H](CO)[C@H](O)[C@H](O[C@@H]8O[C@H](CO)[C@@H](O)[C@H](O)[C@H]8O)[C@H]7O)[C@H](O)[C@H]6O)[C@H](O)C[C@]5(C)[C@H]4CC[C@]3(C)[C@H]1[C@@H]2C` [Digitonin], the “Cytochrome c release (% of total)” value (mitochondria [1]; Digitonin 48 pmol × mg protein^−1, 5 minutes) is reported as 10.7 % of total, the “Cytochrome c release (% of total)” value (mitochondria [1]; Digitonin 80 pmol × mg protein^−1, 5 minutes) is reported as 16.4 % of total and the “Cytochrome c release (% of total)” value (mitochondria [1]; Digitonin 145 pmol × mg protein^−1, 5 minutes) is reported as 26.6 % of total. The “total cytochrome c released by digitonin” value (mitochondria [1]; without substantial respiratory inhibition) was “Approximately 16%”, the “Uncoupled JO2” value (mitochondria [2]; Digitonin 48 pmol × mg protein^−1) was 60 nAt × min^−1 × mg protein^−1 and the “Uncoupled JO2” value (mitochondria [2]; Digitonin 80 pmol × mg protein^−1) was 60 nAt × min^−1 × mg protein^−1. For the same compound, the “Uncoupled JO2” value (mitochondria [2]; Digitonin 145 pmol × mg protein^−1) was 46.7 nAt × min^−1 × mg protein^−1 and the “release of total cytochrome c by digitonin” value (Bak −/− mitochondria) was 19.2±4.8%.

In the case of “NH2-XMLXXXXLLAKKVA—COOH [BID α6 14mer, 14 amino acid peptide of the BID α6 helix]”, the “release of cytochrome c across the mitochondrial outer membrane” value (mitochondria [1]; 10 μM 14mer) is reported as “nor did it trigger the actual release of cytochrome c across the mitochondrial outer membrane; also recorded: does not cause cytochrome c release across the outer membrane”, the mitochondrial swelling (mitochondria [3]; 10 μM 14mer) is reported as “did not induce swelling of mitochondria; also recorded: does not induce mitochondrial swelling” and the “calcein release (onset of transient PT)” value [4] is reported as “resulted in the efflux of mitochondrial matrix entrapped calcein; also recorded: causes calcein release from mitochondria”. The BAK oligomerization (BAK) was “did not result in BAK oligomerization; also recorded: does not induce BAK oligomerization” and the “mobilization of cytochrome c (cytochrome b5-dependent NADH oxidation)” value (wt mitochondria [5]; 10 μM BID α6 14mer, 20 min) was “induced the mobilization of cytochrome c; also recorded: induces cytochrome c redistribution”.

For `[Ca+2]` [Ca^2+], the mitochondrial swelling (mitochondria [3]; 400 μM Ca^2+, positive control) was “maximal swelling”, the ascorbate-driven respiration (wt mitochondria [6]) was “increases the ascorbate-driven respiration” and the “cytochrome b5-dependent NADH oxidation rate” value (wt mitochondria [5]; 200 nmol Ca^2+ × mg protein^−1) was “increased the rate of NADH oxidation”.
